These results are taken from US5922756A, “Method of inhibiting nitric oxide synthase” (priority 1998, dated 1999).

Where two headings read alike, the source gives them in different places.

One assay deals with T1, Murine iNOS (Mus musculus, UniProt P29477).
T1 construct: purchased Cayman
Description: Citrulline assay for iNOS enzyme activity ([3H]arginine to [3H]citrulline). Conditions: for remaining activity at 800 µM: read-out: citrulline formation (% of control). It is filed as biochemical. On the procedure:
Murine iNOS was extracted from the RAW 264.7 murine macrophages (from the American Type Culture Collection). The cells were stimulated with 20 units/mL cf IFNγ and 0.5 μg/mL LPS, incubated for 4 hr, and then harvested. The washed cells were lysed in 50 mM MOPS buffer (pH 7.0) which contained 1 mM EGTA, 100 mM NaCl, 0.1% 3-[(3-cholamidopropl)dimethylammonio]-2-hydroxy-1-propanesulfonate (CHAPSO), 0.2 mM phenylmethylsulfonyl fluoride, […], and 1 mM leupeptin. After passing through Sephadex G-100 (Pharmacia) to remove arginine, NADPH, and unbound tetrahydrobiopterin, the supernatant was concentrated by ultrafiltration using Centricon 30 microconcentrators (Amicon) (Forstermann et al. 1994; Wolff and Gribin 1994). Murine iNOS, 100,000 g fraction, was also purchased from Cayman.
(§1) Enzyme inhibition studies for iNOS were conducted in 50 mM HEPES buffer (pH 7.4) containing 1 mM calcium chloride, 1 mM magnesium acetate and […]. [^3 H]arginine (New England Nuclear), tetrahydrobiopterin (Biomol), and EGCG were added at the indicated concentrations. Reactions were terminated by the addition of AG 50WX8 resin (Bio-Rad) in HEPES-EDTA buffer (pH 5.5). Enzyme activity was measured by monitoring the conversion of [^3 H]arginine to [^3 H]citrulline (Hevel and Marletta 1994). Reactions were allowed to occur at 37° C. for 10-20 min since time-course analyses had shown that the reaction was linear under these conditions. Background was determined by the level of radioactivity in a reaction mixture from which iNOS was omitted. This amount was subtracted from the level detected in the experimental samples. Enzyme activity, i.e. the amount of citrulline formed, was deduced from the specific activity of the [^3 H]arginine.
Purification of tea catechin polyphenols was performed according to Xie et al. (1993). Enzyme preparation and assay were followed as described in the Methods section of Example 2.

In the next assay the test system is GAPDH mRNA expression. Briefly: GAPDH (housekeeping gene) mRNA expression by RT-PCR in activated mouse peritoneal cells. It is filed as cell-based. The settings on record: EGCG 1-10 μM, housekeeping gene control. On the procedure:
(§2) Non-elicited peritoneal exudate cells were obtained from BALB/c mice (Jackson Laboratories) and were cultured at 10^6 /mL as described by Chan et al. (1995). They were stimulated by the addition of 0.01 μg/mL LPS from Salmonella typhosa (Difco Laboratories) and 10 units/mL of IFNγ. At 4 hr after stimulation, total RNA was isolated with a Purescript RNA isolation kit (Gentra). RT-PCR was performed to determine the level of iNOS gene expression. From each sample, 300 ng of RNA was reverse-transcribed using 100 units MMLV reverse transcriptase, 20 units RNase inhibitor, 0.6 mM dNTP, and 0.4 mM Oligo(dT16) (Promega). Then PCR analyses were performed on the aliquots of the cDNA preparations for detecting iNOS and glyceraldehyse 3-phosphate dehydrogenase (GAPDH) gene expression. The reactions occurred in a 50 μL volume, for 23 cycles, with 10 mM Tris-HCl, pH 8.3, 50 mM KCl, 1.5 mM MgCl2, 0.3 mM dNTP, 2.0 units of Taq DNA polymerase, and 50 pmol of 5' and 3' primers. Murine iNOS and GAPDH 5' and 3' primers were purchased from Clontech and used according to manufactures protocols. The products were then separated on 1.6% agarose gel, stained with ethidium bromide, and the intensity of the bands was determined by scanning (Siebert and Kellogg 1995).

In another assay the test system is NO production. Conditions: LPS- and IFNγ-induced mouse peritoneal cells; Chan et al. 1995; cited from earlier work.
The test system of the next assay is iNOS mRNA expression. Description: iNOS gene expression by relative RT-PCR in LPS- and IFNγ-activated mouse peritoneal cells. Conditions: 4 hr after LPS + IFNγ stimulation, read-out: iNOS mRNA expression reduced to (% of control, iNOS/GAPDH ratio). The format is cell-based. On the procedure: as §2
For assay [1], the target named is T2, neuronal nitric oxide synthase (nNOS) (Mus musculus, UniProt Q9Z0J4).
T2 construct: fresh brains from BALB/c mice were homogenized; from tissue; host or cells: brain of BALB/c mice, 100,000 g fraction passed through Sephadex G-100
Briefly: Citrulline assay for neuronal NOS enzyme activity (mouse brain 100,000 g fraction). Conditions: 0.135 μM arginine, 125 μM tetrahydrobiopterin, read-out: nNOS citrulline formation inhibited by (% compared with control). It is filed as biochemical. On the procedure:
as §1
Purification of EGCG was performed according to Xie et al. (1993). Neuronal NOS sample preparation and enzyme activity assay were described in the Methods section of Example 2, with the following modifications. For nNOS, fresh brains from BALB/c mice were homogenized in a 5-fold volume of 50 mM Tris-HCl (pH 7.5) that contained 1 mM EDTA, 5 mM 2-mercaptoethanol and then were centrifuged at 100,000 g for 1 hr, and then the sample was passed through the Sephadex G-100 column. For the nNOS enzyme assay, 5 μM flavin mononucleotide, 5 μM flavin adenine dinucleotide, 10 μg/mL calmodulin (Calbiochem) and 1.25 mM DTT were incorporated in the reaction mixture.

Where [2] appears, read: 800 μM compound, 0.270 μM arginine, 125 μM tetrahydrobiopterin, 126 pmol/min iNOS.
Where [3] appears, read: read-out: citrulline formation inhibited to (% of control).

Turning to `O=C(O[C@@H]1Cc2c(O)cc(O)cc2O[C@@H]1c1ccc(O)c(O)c1)c1cc(O)c(O)c(O)c1` [ECG, epicatechin-gallate], the remaining activity at 800 µM on Murine iNOS (setting [2]) was determined as 68%.

Turning to `Oc1cc(O)c2c(c1)O[C@H](c1cc(O)c(O)c(O)c1)[C@H](O)C2` [EGC, epigallocatechin], the remaining activity at 800 µM at Murine iNOS (setting [2]) was determined as 96%.

With `O=C(O[C@@H]1Cc2c(O)cc(O)cc2O[C@@H]1c1cc(O)c(O)c(O)c1)c1cc(O)c(O)c(O)c1` [EGCG, Epigallocatechin-3-gallate], in the assay on GAPDH mRNA expression, the “reduction in mRNA expression of GAPDH” value is reported as “not observed”. For the same molecule, in the assay on NO production, the “NO production measured by nitrite accumulation in the culture medium” value is “reduces NO production”. In addition, the mrna remaining at 1 µM in the assay with iNOS mRNA expression (1 μM EGCG) is 82%. Also, the mrna remaining at 3 µM in the assay on iNOS mRNA expression (3 μM EGCG) turned out to be 74%. Besides, in the assay on iNOS mRNA expression (5 μM EGCG), the mrna remaining at 5 µM amounted to 41%. Also, the mrna remaining at 10 µM in the assay on iNOS mRNA expression (10 μM EGCG) worked out at 14%. Further, at Murine iNOS, a half-maximal response (EC50) required 150 µM, the affinity corresponds to a Ki of 130 µM and the remaining activity at 800 µM worked out at 62%. In addition, on Murine iNOS (100-600 μM EGCG, 0.068-0.270 μM arginine), the “pattern of inhibition with respect to substrate arginine (Dixon plot)” value is recorded as “competitive pattern of inhibition”. Further, the “pattern of inhibition with respect to cofactor tetrahydrobiopterin (Dixon plot)” value at Murine iNOS (100-600 μM EGCG, 12-125 μM tetrahydrobiopterin) was “competitive manner”. Further, on Murine iNOS (setting [3]), the inhibition at 50 µM came out at 85%, the inhibition at 250 µM is 40%, the inhibition at 500 µM was 27% and the inhibition at 750 µM was found to be 14%. In addition, the inhibition at 200 µM in assay [1] (200 μM EGCG) stood at 79%. In assay [1] (400 μM EGCG), the inhibition at 400 µM stood at 51%. Moreover, in assay [1] (600 μM EGCG), the inhibition at 600 µM stood at 56%.

One may read the EC50 as the concentration at which the effect is half-maximal. The low end stands for an effect from little substance, the high end for a need for much substance. For orientation: Ki means the equilibrium dissociation constant of an inhibitor or competing ligand from its target.
